Data on 4 molecules can be found in article PMC4077001, “Purification and characterization of a novel lipopeptide from Streptomyces amritsarensis sp. nov. active against methicillin-resistant Staphylococcus aureus” (AMB Express, 2014).

Converted amounts (≈) assume the structure as drawn. Ends that are not written are not given here.

Data set [1] in a line: Qualitative drop-collapse test. Format: physicochemical. Particulars: 2 μl mineral oil, 5 μl lipopeptide (10 μg, dissolved in water), drop shape after 1 min. The protocol: (§1) Biosurfactant property of lipopeptide was determined using the qualitative drop-collapse test (Youssef et al. [2004]). In this method, mineral oil (2 μl) was added to 96-well microtitre plate. The plate was equilibrated for 1 h at 37°C and 5 μl of the lipopeptide (10 μg, dissolved in water) was added to the surface of the oil and drop shape was observed after 1 min. The surface tension of a lipopeptide (0.2%, w/v) was measured using Du-Nouy-Ring method (Du Noüy and Pierre [1925]).

The nature of a further data set: Heat stability assay. To be noted: for Residual activity (%): residual antimicrobial activity. Format: physicochemical. The source says:
(§2) All enzymes were purchased from Sigma Aldrich.

The nature of data set [2]: Effect of pH on lipopeptide activity. Format: physicochemical. Particulars: for Residual activity (%): residual antimicrobial activity.
Description: as §2

The subject of data set [3] is Staphylococcus epidermidis (MTCC 435). Description: Kirby-Bauer disk diffusion susceptibility test. The format is cell-based. To be noted: 10 μg lipopeptide per 6 mm disc, Mueller-Hinton agar, 24-48 h; duplicates, repeated thrice. The protocol: (§3) Sensitivity of test organisms to purified lipopeptide was measured in terms of zone of inhibition using Kirby-Bauer disk diffusion susceptibility test (Bauer et al. [1966]). The plates containing Mueller-Hinton agar, yeast malt agar and potato dextrose agar were seeded with test bacteria, yeasts and fungi, respectively. Filter paper discs (6 mm) impregnated with 10 μg of lipopeptide were placed on media plates. The diameter of the resultant zone of inhibition was measured in mm after 24- 48 hours of incubation. Each experiment was performed in duplicates and repeated thrice. Various test organisms used in the study included Bacillus subtilis (MTCC 619), Mycobacterium smegmatis (MTCC 6), Staphylococcus epidermidis (MTCC 435), Escherichia coli (MTCC 1885), Klebsiella pneumoniae sub sp. pneumoniae (MTCC 109), Enterobacter aerogenes (MTCC 111), Salmonella typhi (MTCC 733), multi-drug resistant E. coli, MRSA, VRE, Candida albicans (MTCC 3017), Rhodotorula rubra (MTCC 248), Colletotrichum acutatum (MTCC 1037), Cercospora beticola (GenBank acc. no. KJ461435), Fusarium oxysporum f.sp. dianthi (MTCC 6659), and Alternaria brassicicola (MTCC 2102).

Data set [4] relates to Mycobacterium smegmatis (MTCC 6). Put plainly: Kirby-Bauer disk diffusion susceptibility test. The format is cell-based. Particulars: 10 μg lipopeptide per 6 mm disc, Mueller-Hinton agar, 24-48 h; duplicates, repeated thrice. The protocol: as §3
On the technique in general: A growth-free zone around the sample is the usual read-out of agar diffusion tests.

Another data set deals with fungi. Put plainly: Kirby-Bauer disk diffusion susceptibility test. Format: cell-based. To be noted: 10 μg per disc. The protocol:
as §3

In data set [5] the test system is tested Gram-negative bacteria. Description: Kirby-Bauer disk diffusion susceptibility test. The format is cell-based. Particulars: 10 μg per disc. The protocol: as §3
Data set [6] deals with Bacillus subtilis (MTCC 619). Description: Kirby-Bauer disk diffusion susceptibility test. The format is cell-based. Particulars: 10 μg lipopeptide per 6 mm disc, Mueller-Hinton agar, 24-48 h; duplicates, repeated thrice. The protocol:
as §3

In data set [7] the test system is Salmonella typhimurium (TA98). Description: Ames test (Salmonella reverse mutation test). The format is cell-based. The protocol: Mutagenicity of the lipopeptide was evaluated by Ames test (Maron and Ames [1983]). This Salmonella reverse mutation test is based on histidine dependence and mutations in Salmonella typhimurium (TA98/ MTCC 1251, IMTECH, Chandigarh). Concentrations of the lipopeptide used for checking toxicity were 50 and 100 μg 0.1 ml^−1 plate^−1. The overnight grown, 0.1 ml bacterial culture and 0.1 ml of lipopeptide were added to 2.0 ml of top agar. The contents were mixed and poured onto glucose minimal agar plates immediately. The plates were […] incubated at 37°C for 48 h. The experiment was repeated to confirm the results. To determine the spontaneous reversion which is characteristic of the tester strain (TA 98), negative control (0.1 ml bacterial culture + 0.1 ml DMSO plate^−1) was run while 4-Nitro-o-phenylenediamine (20 μg 0.1 ml^−1 plate^−1) was used as a positive control mutagen. The mutagenic potential of the lipopeptide was determined by comparing the number of colonies with control plates where no test compound was added.
(The Ames test uses bacterial strains that need an amino acid and regain growth without it when mutated back.)

For a further data set, the system named is MRSA. Description: Kirby-Bauer disk diffusion susceptibility test. To be noted: clinical isolate; 10 μg lipopeptide per 6 mm disc, Mueller-Hinton agar, 24-48 h; duplicates, repeated thrice. The format is cell-based, Staphylococcus aureus. On the procedure: as §3
For data set [8], the system named is Staphylococcus epidermidis (MTCC 435). Description: MIC, microtiter plate dilution assay. Particulars: 37°C, OD 600 nm at 24 and 48 h, triplicates. The format is cell-based. On the procedure: (§4) The MIC of purified lipopeptide was evaluated by using a microtiter plate dilution assay. Test bacteria were grown to logarithmic phase under optimal conditions (up to 0.3 OD) and the test was performed in triplicates. To each well of the microtiter plate, 200 μl of fresh nutrient medium and 50 μl of bacterial suspension were added. Subsequently, different dilutions (50 μl) of freshly prepared samples were added to each well. The first column of the microtiter plate was left as a blank, containing fresh medium only. The microtiter plates were incubated at 37°C and OD was measured at 600 nm at 24 and 48 h using ELISA microplate reader (Bio-rad, Model 680XR).

Data set [9] deals with Mycobacterium smegmatis (MTCC 6). Put plainly: MIC, microtiter plate dilution assay. Format: cell-based. To be noted: 37°C, OD 600 nm at 24 and 48 h, triplicates. On the procedure:
as §4

Data set [10] has as its system Methicillin Resistant Staphylococcus aureus (MRSA). Put plainly: MIC, microtiter plate dilution assay. Format: cell-based. To be noted: clinical strain, 37°C, OD 600 nm at 24 and 48 h, triplicates. The protocol: as §4
Data set [11] relates to Bacillus subtilis (MTCC 619). Description: MIC, microtiter plate dilution assay. The format is cell-based. Particulars: 37°C, OD 600 nm at 24 and 48 h, triplicates. The protocol: as §4
Data set [12] can be described thus: Surface tension, Du-Nouy-Ring method. Particulars: lipopeptide 0.2% (w/v), lowered from 72. The format is physicochemical. The protocol:
as §1

A further data set has as its target T1, proteinase K (Parengyodontium album, UniProt P06873).
T1 construct: purchased Sigma Aldrich
Put plainly: Sensitivity to enzymes. Format: in vitro ADME. To be noted: lipopeptide 1.0 mg/ml + proteinase K (~30 U/mg) 1.0 mg/ml in 50 mM phosphate buffer pH 7.0, equal volumes (20 μl each), 37°C, 12 h; residual activity by disc diffusion.
Description: as §2

Data set [13] relates to lipase. To be noted: lipopeptide 1.0 mg/ml + lipase (~9 U/mg) 1.0 mg/ml in 50 mM phosphate buffer pH 7.0, equal volumes (20 μl each), 37°C, 12 h; residual activity by disc diffusion. The protocol:
(§5) Sensitivity to temperature was determined by incubating the purified lipopeptide at different temperatures viz. 50°C, 60°C, 70°C, 80°C , 90°C, 100°C and 121°C for different durations. To determine the optimum pH for activity, purified compound was incubated over pH range of 3.0–12.0 for 30 min at 37°C. The sensitivity of the lipopeptide (1.0 mg/ml) to enzymes was tested against proteinase K (~30 U/mg), trypsin (~10,000 U/mg) and lipase (~9 U/mg). All enzymes were purchased from Sigma Aldrich. Enzyme solutions were prepared at 1.0 mg/ml in 50 mM phosphate buffer (pH 7.0). Equal volumes of enzyme solution and antimicrobial compound (20 μl each) were mixed and incubated at 37°C for 12 h. The enzyme reaction was terminated by heating reaction mixture at 80°C and residual activity was determined by disc diffusion method.

The target in data set [14] is T2, trypsin (Bos taurus, UniProt P00760).
T2 sequence (P00760 24-246): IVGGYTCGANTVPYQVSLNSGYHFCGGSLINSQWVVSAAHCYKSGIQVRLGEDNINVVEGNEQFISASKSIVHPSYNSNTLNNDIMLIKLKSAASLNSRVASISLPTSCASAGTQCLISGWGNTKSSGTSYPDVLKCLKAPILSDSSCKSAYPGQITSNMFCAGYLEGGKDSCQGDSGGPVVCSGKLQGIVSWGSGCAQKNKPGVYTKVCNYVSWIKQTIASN
To be noted: lipopeptide 1.0 mg/ml + trypsin (~10,000 U/mg) 1.0 mg/ml in 50 mM phosphate buffer pH 7.0, equal volumes (20 μl each), 37°C, 12 h; residual activity by disc diffusion. The protocol: as §5

In data set [15] the test system is Chinese hamster ovary (CHO) cell line. Description: cells. Format: cell-based. To be noted: 48 h; for growth inhibition: SRB, OD 540 nm. The protocol: In vitro cytotoxicity was evaluated using sulforhodamine B dye assay (Skehan et al. [1990]). The Chinese hamster ovary cell line (CHO) was used for the assay. Camptothecin (CPT), an anticancer drug was used as standard. The 96-well tissue culture plate, containing different concentrations of lipopeptide (2.5- 25 μg/ml) and CHO cells, was incubated for 48 h and the cell growth was stopped with trichloroacetic acid (50% TCA, 50 μl). The optical density (OD) was recorded at 540 nm on ELISA reader and percent growth inhibition was calculated.

Data set [16] deals with T2, trypsin. The arrangement: purchased Sigma Aldrich. To be noted: ref Guo et al. 2012; cited from earlier work. The text has this: (§6) Antimicrobial lipopeptides have been purified from many bacterial genera including several Streptomyces spp. such as S. violaceus var. aspartocinius (aspartocin), S. griseoflavus (tsushimycin), S. viridochromogens (laspartomycin), S. coelicolor (calcium-dependent antibiotic), S. roseosporus (daptomycin), S. fradiae (A54145), S. parvulus var. parvuli (parvuline) and S. canus (amphomycin) (Schneider et al. [2009]). The present study reports the production of another novel lipopeptide from a Streptomyces sp. The primary structure of lipopeptide was determined using a combination of chemical rea ...

The subject of data set [17] is lipase. To be noted: ref Guo et al. 2012; cited from earlier work.
Description: as §6

T1 sequence (P06873 106-384): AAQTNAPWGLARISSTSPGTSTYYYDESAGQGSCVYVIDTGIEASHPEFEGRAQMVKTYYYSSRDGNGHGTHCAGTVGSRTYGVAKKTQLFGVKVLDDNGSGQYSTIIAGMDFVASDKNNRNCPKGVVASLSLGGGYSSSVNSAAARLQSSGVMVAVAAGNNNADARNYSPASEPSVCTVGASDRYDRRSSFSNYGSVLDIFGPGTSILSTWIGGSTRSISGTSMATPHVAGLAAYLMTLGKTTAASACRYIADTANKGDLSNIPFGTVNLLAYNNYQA

As usually defined, the MIC is the least concentration at which growth counts as inhibited. The low end stands for a more susceptible organism, the high end for a less susceptible organism. On to “ATGSHQ [lipopeptide, novel antimicrobial lipopeptide from Streptomyces amritsarensis; Ala-Thr-Gly-Ser-His-Gln, C-terminal amino acid linked to aliphatic chain -(CH2)7-CH2-(CH3)2-]”, for which the drop-collapse test result in data set [1] is “collapsed the oil drop”. For the same molecule, the “Residual activity (%)” value came out at 100% in the data set “Heat stability assay” (50°C, 1 h); 100% in the data set “Heat stability assay” (60°C, 1 h); 100% in “Heat stability assay” (70°C, 1 h); 84.2% in “Heat stability assay” (80°C, 1 h); 95.0% in the data set “Heat stability assay” (90°C, 15 min); 86.3% in “Heat stability assay” (100°C, 15 min). Also, the “Residual activity (%)” value in the data set “Heat stability assay” (121°C, 15 min (304 KPa), autoclaving) was determined as 81.8%; in [2] (pH 2, 1 h/4°C), 0%; in [2] (pH 3, 1 h/4°C), 72.7%; in data set [2] (pH 4, 1 h/4°C), 84.6%; in data set [2] (pH 5, 1 h/4°C), 100%; in [2] (pH 6, 1 h/4°C), 100%. Moreover, the “Residual activity (%)” value is given as 100% in data set [2] (pH 7, 1 h/4°C); 100% in [2] (pH 8, 1 h/4°C); 100% in data set [2] (pH 9, 1 h/4°C); 86.3% in data set [2] (pH 10, 1 h/4°C); 68.1% in [2] (pH 11, 1 h/4°C); 0% in data set [2] (pH 12, 1 h/4°C). Also, the heat stability result in the data set “Heat stability assay” (70°C for 1 h) was “completely stable”. In “Heat stability assay” (100°C, 15 minutes incubation), this molecule yielded a loss of activity of 13.7%. Moreover, in the data set “Heat stability assay” (after autoclaving (121°C for 15 min)), the “reduction of antimicrobial activity” value is recorded as 18.2%. Besides, the “change in activity profile” value in data set [2] (between pH 5.0–9.0) is “did not show any change”. Further, the inhibition zone in [3] was determined as 17 mm; in data set [4], 15 mm; in data set [6], 21 mm; with MRSA, 13 mm. The antimicrobial activity result (with fungi; in [5]) was “did not show activity” in each case. Besides, in data set [7] (50 and 100 μg/0.1 ml per plate, 48 hours at 37°C), the mutagenicity entry is on record as “non-mutagenic”. For the same molecule, the MIC is 15 µg/mL in data set [8], 25 µg/mL in [9], 45 µg/mL in [10] and 10 µg/mL in [11]. Moreover, the “surface tension of water” value in data set [12] turned out to be 37 mN m^−1. Further, the “stability to proteinase K” value on proteinase K is listed as “negligible loss in activity”. In the data set on lipase [13], the stability to lipase result is “resistant”. For the same molecule, the stability to trypsin entry on trypsin [14] is given as “resistant”. For the same molecule, the growth inhibition came out at 2.9% in data set [15] (2.5 μg/ml); 16.8% in [15] (6.25 μg/ml); 19.25% in data set [15] (12.5 μg/ml); 23.28% in data set [15] (18.75 μg/ml); 28.9% in data set [15] (25 μg/ml).
Broadly, the IC50 is the midpoint of a concentration-inhibition curve. The molecule `CC[C@@]1(O)C(=O)OCc2c1cc1n(c2=O)Cc2cc3ccccc3nc2-1` [camptothecin, Camptothecin, reference compound] came in with a half-inhibitory concentration (IC50) in [15] (Cricetulus griseus, CHO cells, SRB assay) of 0.959 µg/mL (≈ 2.75 µM).
Regarding `Nc1ccc([N+](=O)[O-])cc1N` [positive mutagen, 4-Nitro-o-phenylenediamine, reference compound], the “number of revertant colonies” value in data set [7] (positive control, 20 μg plate^-1, compared with negative control) is listed as “considerably higher”.
Take paenibacterin: the resistance to trypsin entry at trypsin [16] is given as “resistant”. Moreover, in the data set on lipase [17], the resistance to lipase entry was “resistant”.
